{
  "source": "paper PMC5458078",
  "about": "“Global mapping of CARM1 substrates defines enzyme specificity and substrate recognition” (Nature Communications, 2017)",
  "key": {"[1]": {"test_system": "MCF7 cells", "experiment": "Quantitative nanoLC-MS/MS (TMT) of ADMA-containing peptides, CARM1 KO vs parental", "format": "cell-based, human", "parameters": "Fold change KO/WT: scale not given here"}, "[2]": {"test_system": "MCF7 CARM1 KO cells", "experiment": "Quantitative MS of ADMA-containing peptides in MCF7 CARM1 KO cells expressing CARM1 28-608 or CARM1 140-608, and in CARM1 KO", "format": "cell-based, human"}, "[3]": {"settings": "ADMA-containing peptide, CARM1 knockout (KO) vs wild type (WT) MCF7 cells, 6-plex TMT experiment #1, three biological replicates each, sheet \"MCF7\""}, "[4]": {"settings": "CARM1 140-608 versus WT, mean of three replicates (log2)"}, "[5]": {"settings": "KO versus WT, mean of three replicates (log2)"}, "[6]": {"settings": "ADMA-containing peptide, MCF7, CARM1 knockout (KO1-3) vs wild type (WT1-3), TMT 6-plex experiment #1"}, "[7]": {"settings": "MCF7, CARM1 knockout vs wild type, n = 3 each"}, "[8]": {"settings": "mean, CARM1 140-608 versus WT (log2 scale)"}, "[9]": {"settings": "mean, CARM1 KO versus WT (log2 scale)"}, "[10]": {"settings": "MCF7, CARM1 KO (KO1-KO3) vs wild type (WT1-WT3)"}, "[11]": {"settings": "CARM1 140-608 vs WT, mean of 3 replicates (log2 scale)"}, "[12]": {"settings": "KO vs WT, mean of 3 replicates (log2 scale)"}, "[13]": {"settings": "MCF7 CARM1 knockout vs wild type, 3 biological replicates each, values are on log2 scale"}, "[14]": {"settings": "ratio on log2 scale, mean of 3 replicates"}, "[15]": {"settings": "difference of log2 means, CARM1 140-608 vs WT"}, "[16]": {"settings": "difference of log2 means, KO vs WT"}, "[17]": {"settings": "CARM1 KO vs wild type MCF7 cells, 3 biological replicates each"}, "[18]": {"settings": "CARM1 140-608 versus WT, difference of mean log2 values"}, "[19]": {"settings": "CARM1 KO versus WT, difference of mean log2 values"}, "[20]": {"settings": "log2 scale ratio, mean of n = 3"}},
  "note": "Read-outs that look alike come from different tables or passages of the source.",
  "data": [
    {"substance": "GMQHFPPGPGGPMPGPHGGPGGPVGPrLLGPPPPPR", "values": [
      {"measurement": "Fold change KO/WT", "setting": "[1]; [3]", "result": -1.283},
      {"measurement": "CARM1 140-608/WT", "setting": "[2]; [4]", "result": -0.7184},
      {"measurement": "KO/WT", "setting": "[2]; [5]", "result": -1.425}
    ]},
    {"substance": "GMYNQrYHCPVPK", "values": [
      {"measurement": "Fold change KO/WT", "setting": "[1]; [6]", "result": -2.857},
      {"measurement": "CARM1 140-608/WT", "setting": "[2]", "result": -2.175},
      {"measurement": "KO/WT", "setting": "[2]", "result": -2.857}
    ]},
    {"substance": "GPGGPrGGLGGGMR", "values": [
      {"measurement": "Fold change KO/WT", "setting": "[1]; [7]", "result": 0.08213},
      {"measurement": "CARM1 140-608/WT", "setting": "[2]; [8]", "result": 0.09567},
      {"measurement": "KO/WT", "setting": "[2]; [9]", "result": -0.1983}
    ]},
    {"substance": "GPLPPPRPTPrPPVPPrGPLrGPLPQ", "values": [
      {"measurement": "Fold change KO/WT", "setting": "[1]; [10]", "result": -0.7434},
      {"measurement": "CARM1 140-608/WT", "setting": "[2]; [11]", "result": 0.8489},
      {"measurement": "KO/WT", "setting": "[2]; [12]", "result": -0.7434}
    ]},
    {"substance": "GPPGGNrGGFQNrGGGSGGGGNYrGGFNR", "values": [
      {"measurement": "Fold change KO/WT", "setting": "[1]; [13]", "result": 0.2458},
      {"measurement": "CARM1 140-608/WT", "setting": "[2]; [8]", "result": 0.1824},
      {"measurement": "KO/WT", "setting": "[2]; [9]", "result": 0.1614}
    ]},
    {"substance": "GPPLArLPHDPGVFR", "values": [
      {"measurement": "Fold change KO/WT", "setting": "[1]; [7]", "result": -1.8},
      {"measurement": "CARM1 140-608/WT", "setting": "[2]; [14]", "result": -1.527},
      {"measurement": "KO/WT", "setting": "[2]; [14]", "result": -1.8}
    ]},
    {"substance": "GPPPFPGVPLMSTPMGGPVPPPIrYGPPPQLCGPFGPrPLPPPFGPGMrPPLGLREFAPGVPPGrR", "values": [
      {"measurement": "Fold change KO/WT", "setting": "[1]; [3]", "result": -2.997},
      {"measurement": "CARM1 140-608/WT", "setting": "[2]; [15]", "result": -1.1204},
      {"measurement": "KO/WT", "setting": "[2]; [16]", "result": -2.997}
    ]},
    {"substance": "GPPPGSANPPrLVSSYrLK", "values": [
      {"measurement": "Fold change KO/WT", "setting": "[1]; [13]", "result": -2.444},
      {"measurement": "CARM1 140-608/WT", "setting": "[2]; [15]", "result": -0.6365},
      {"measurement": "KO/WT", "setting": "[2]; [16]", "result": -1.758}
    ]},
    {"substance": "GPVGQALPrPQAPPrLQSLMGTVQQGAQSWQQR", "values": [
      {"measurement": "Fold change KO/WT", "setting": "[1]; [3]", "result": -3.859},
      {"measurement": "CARM1 140-608/WT", "setting": "[2]; [15]", "result": -1.639},
      {"measurement": "KO/WT", "setting": "[2]; [16]", "result": -3.859}
    ]},
    {"substance": "GPVTPGGLPPrGLLGDAPNDPR", "values": [
      {"measurement": "Fold change KO/WT", "setting": "[1]; [7]", "result": -1.652},
      {"measurement": "CARM1 140-608/WT", "setting": "[2]; [14]", "result": -1.495},
      {"measurement": "KO/WT", "setting": "[2]; [14]", "result": -1.652}
    ]},
    {"substance": "GPrFEGNRPDGPrPrYEGHPAEGTK", "values": [
      {"measurement": "Fold change KO/WT", "setting": "[1]; [17]", "result": -2.637},
      {"measurement": "CARM1 140-608/WT", "setting": "[2]; [18]", "result": -1.638},
      {"measurement": "KO/WT", "setting": "[2]; [19]", "result": -2.637}
    ]},
    {"substance": "GPrFEGNrPDGPrPrYEGHPAEGTK", "values": [
      {"measurement": "Fold change KO/WT", "setting": "[1]; [17]", "result": -5.083},
      {"measurement": "CARM1 140-608/WT", "setting": "[2]; [18]", "result": -4.084},
      {"measurement": "KO/WT", "setting": "[2]; [19]", "result": -5.484}
    ]},
    {"substance": "GQLFrLPSALNR", "values": [
      {"measurement": "Fold change KO/WT", "setting": "[1]; [7]", "result": -4.127},
      {"measurement": "CARM1 140-608/WT", "setting": "[2]; [14]", "result": -1.812},
      {"measurement": "KO/WT", "setting": "[2]; [14]", "result": -4.117}
    ]},
    {"substance": "GQPVGGLrFEGPHGQPVGGLrFDNPR", "values": [
      {"measurement": "Fold change KO/WT", "setting": "[1]; [3]", "result": -1.132},
      {"measurement": "CARM1 140-608/WT", "setting": "[2]; [4]", "result": 0.02925},
      {"measurement": "KO/WT", "setting": "[2]; [5]", "result": -0.8726}
    ]},
    {"substance": "GQPrTWLQSPV", "values": [
      {"measurement": "Fold change KO/WT", "setting": "[1]; [10]", "result": -3.17},
      {"measurement": "CARM1 140-608/WT", "setting": "[2]; [11]", "result": -2.79},
      {"measurement": "KO/WT", "setting": "[2]; [12]", "result": -3.17}
    ]},
    {"substance": "GRPSSPrTPLYLQPDAYGSLDR", "values": [
      {"measurement": "Fold change KO/WT", "setting": "[1]; [10]", "result": -1.386},
      {"measurement": "CARM1 140-608/WT", "setting": "[2]; [4]", "result": -1.266},
      {"measurement": "KO/WT", "setting": "[2]; [5]", "result": -1.386}
    ]},
    {"substance": "GSGTGIYSNAAPPPVTYQGNLYrPLLR", "values": [
      {"measurement": "Fold change KO/WT", "setting": "[1]; [17]", "result": -2.788},
      {"measurement": "CARM1 140-608/WT", "setting": "[2]; [18]", "result": 1.554},
      {"measurement": "KO/WT", "setting": "[2]; [19]", "result": -1.424}
    ]},
    {"substance": "GSQDSPAVPHPGPLQHWQPENVNQAFTrPPPPYPGNIrSPVAPPLGPrYAVFPK", "values": [
      {"measurement": "Fold change KO/WT", "setting": "[1]; [13]", "result": -2.234},
      {"measurement": "CARM1 140-608/WT", "setting": "[2]; [15]", "result": -1.013},
      {"measurement": "KO/WT", "setting": "[2]; [16]", "result": -2.722}
    ]},
    {"substance": "GSRLPLALPPASQGCSSGGGGGGGGGSSAGGSGNSrPPR", "values": [
      {"measurement": "Fold change KO/WT", "setting": "[1]; [13]", "result": -0.9721},
      {"measurement": "CARM1 140-608/WT", "setting": "[2]; [8]", "result": -0.7656},
      {"measurement": "KO/WT", "setting": "[2]; [9]", "result": -0.9721}
    ]},
    {"substance": "GTPGPPPAHGAALQPHPrVNFCPLPSEQCYQAPGGPEDR", "values": [
      {"measurement": "Fold change KO/WT", "setting": "[1]; [17]", "result": -0.7925},
      {"measurement": "CARM1 140-608/WT", "setting": "[2]; [18]", "result": -1.327},
      {"measurement": "KO/WT", "setting": "[2]; [19]", "result": -0.7925}
    ]},
    {"substance": "GTVVTPVQVPLLPVPSQPrPAVGPQrFPGPPEFPQHTPGPVPNSFSQPPrLPLQDQWrAPPPPQDR", "values": [
      {"measurement": "Fold change KO/WT", "setting": "[1]; [10]", "result": -3.321},
      {"measurement": "CARM1 140-608/WT", "setting": "[2]; [11]", "result": -1.653},
      {"measurement": "KO/WT", "setting": "[2]; [12]", "result": -3.712}
    ]},
    {"substance": "GVGPPrGALVrGTPVrGAITR", "values": [
      {"measurement": "Fold change KO/WT", "setting": "[1]; [13]", "result": -0.04858},
      {"measurement": "CARM1 140-608/WT", "setting": "[2]; [8]", "result": 0.2467},
      {"measurement": "KO/WT", "setting": "[2]; [9]", "result": 0.3361}
    ]},
    {"substance": "GVVDSDDLPLNVSr", "values": [
      {"measurement": "Fold change KO/WT", "setting": "[1]; [13]", "result": -0.9856},
      {"measurement": "CARM1 140-608/WT", "setting": "[2]; [8]", "result": -0.04605},
      {"measurement": "KO/WT", "setting": "[2]; [9]", "result": -1.284}
    ]},
    {"substance": "GVVNTAVSAAVQAVrGrGrGTLTr", "values": [
      {"measurement": "Fold change KO/WT", "setting": "[1]; [6]", "result": -0.6248},
      {"measurement": "CARM1 140-608/WT", "setting": "[2]; [20]", "result": -0.4677},
      {"measurement": "KO/WT", "setting": "[2]; [20]", "result": -0.6727}
    ]},
    {"substance": "GrFPGAVPGGDrFPGPAGPGGPPPPFPGNLIK", "values": [
      {"measurement": "Fold change KO/WT", "setting": "[1]; [7]", "result": -2.782},
      {"measurement": "CARM1 140-608/WT", "setting": "[2]; [14]", "result": -1.24},
      {"measurement": "KO/WT", "setting": "[2]; [14]", "result": -2.782}
    ]},
    {"substance": "GrGALLQDICK", "values": [
      {"measurement": "Fold change KO/WT", "setting": "[1]; [17]", "result": 0.3016},
      {"measurement": "CARM1 140-608/WT", "setting": "[2]; [18]", "result": 0.1138},
      {"measurement": "KO/WT", "setting": "[2]; [19]", "result": -0.96}
    ]}
  ]
}
